What all share (test): growth of human tumour cells (NCI), 48 h
The test system of experiment [1] is DU-145 prostate.
Experiment [2] deals with NCI-H23 lung.
Experiment [3] has as its system A549 NSCLC.
Experiment [4] relates to OVCAR-4 ovarian.
Experiment [5] concerns MOLT-4 leukemia.
For experiment [6], the system named is OVCAR-8 ovarian.
The subject of experiment [7] is SK-MEL-2 melanoma.
Experiment [8] relates to HT29 colon.
Experiment [9] has as its system MDA-MB-231 breast.
The test system of experiment [10] is SF-539 CNS.
Experiment [11] relates to SK-OV-3 ovarian.
Experiment [12] relates to SNB-75 CNS.

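Where inhibition never reached the appropriate level, the endpoint shown equals the highest concentration tested. Otherwise, values were interpolated linearly from a five-concentration, 48-hour dose response in 96-well plates. At the TGI there is no net growth.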 Bounds are passed on as bounds.

With `NC(N)=NCCN1CC2CCC(CC2)C1`, the TGI in experiment [1], in experiment [2], in experiment [3], in experiment [4], in [5] and in [6] was over 100 µM in each case. The TGI was over 100 µM in experiment [7]; over 100 µM in experiment [8]; over 100 µM in [9]; over 100 µM in [10]; over 100 µM in experiment [11]; 98.7 µM in experiment [12].

Consider `CN1C(=O)c2ccccc2OC12C=Cc1c(ccc3ccccc13)O2` (stereo not given), for which the TGI in experiment [1] is over 45 µM; in experiment [2], 16 µM; in experiment [3] it was 40.1 µM; in experiment [4] it was over 52.7 µM; in experiment [5], 17.2 µM; in experiment [6], 17.6 µM. Besides, the TGI turned out to be 22 µM in experiment [7]; 10.3 µM in experiment [8]; 44.6 µM in experiment [9]; 50.4 µM in experiment [10]; 27.4 µM in experiment [11]; 33.1 µM in experiment [12].

In the case of `CN(CCSCCN(C)C(=O)OC(C)(C)C)C(=O)OC(C)(C)C`, the TGI in [1], in [2], in experiment [3], in experiment [4], in experiment [5] and in experiment [6] was over 100 µM in each case. In addition, the TGI in experiment [7], in experiment [8], in experiment [9], in [10], in experiment [11] and in [12] was over 100 µM in each case.

`CC(=O)Nc1sc(Br)cc1S(=O)(=O)c1ccc(Cl)cc1`: the TGI in experiment [1] was over 100 µM; in experiment [2], over 100 µM; in experiment [3], 90.5 µM; in experiment [4] it was 64.5 µM; in experiment [5], over 100 µM; in experiment [6], 68.7 µM. The TGI in experiment [7] was over 100 µM; in experiment [8], 30.8 µM; in [9], over 100 µM; in experiment [10], 40.6 µM; in experiment [11], over 100 µM; in experiment [12], 88.6 µM.

With `CC1CC(OP(=O)(OCc2ccccc2)OCc2ccccc2)[C@@H](OCc2ccccc2)C(OCc2ccccc2)C1OCc1ccccc1` (stereo not given in full), the TGI in [1], in experiment [2], in experiment [3], in [4], in experiment [5] and in [6] was over 100 µM throughout. In addition, the TGI in [7], in experiment [8], in [9], in [10], in experiment [11] and in experiment [12] was over 100 µM in each case.

As to `COC(=O)C1=C(C(=O)OC)N(c2ccc(OC)cc2[N+](=O)[O-])C(c2ccc(C)cc2)=CC1c1ccc(OC)cc1OC` (stereo not given), the TGI was over 100 µM in experiment [1]; over 100 µM in experiment [2]; 65.3 µM in [3]; over 100 µM in experiment [4]; 55.2 µM in [5]; 47.9 µM in experiment [6]. The TGI in [7] is over 80.4 µM; in experiment [8], over 100 µM; in experiment [9] it was over 74 µM; in experiment [10], 20.8 µM; in experiment [11] it was 73.3 µM; in experiment [12], over 87.7 µM.

Consider `C=CCc1cccc2cc(C(=O)NCc3ccccc3)c(=N)oc12`, for which the TGI in experiment [1], in [2], in experiment [3], in experiment [4], in [5] and in [6] was over 100 µM each time. Besides, the TGI was 31.5 µM in experiment [7]; over 100 µM in experiment [8]; over 100 µM in experiment [9]; over 100 µM in experiment [10]; over 100 µM in [11]; over 100 µM in experiment [12].

Take `O=[N+]([O-])C[C@@]12O[C@]3(O)C4C5CC(C6C5C3C61)C42` (stereo not given in full): the TGI in [1], in experiment [2], in experiment [3], in experiment [4], in [5] and in [6] was over 100 µM throughout. Moreover, the TGI in experiment [7], in experiment [8], in experiment [9], in experiment [10], in [11] and in [12] was over 100 µM in each case.

As for `O=c1oc2ccc3ccccc3c2cc1-c1nc2ccccc2s1`, the TGI in experiment [1] was over 100 µM; in experiment [2], over 100 µM; in [3], over 100 µM; in experiment [4], over 100 µM; in experiment [5] it was over 21.6 µM; in experiment [6], over 100 µM. For the same compound, the TGI in [7], in experiment [8], in [9], in experiment [10], in experiment [11] and in [12] was over 100 µM in each case.

`CC1=NN(c2nc(N)nc(/C(C#N)=C\c3ccc([N+](=O)[O-])s3)n2)C(C)(C)C1`: the TGI in experiment [1] is 0.597 µM; in experiment [2], 3.32 µM; in experiment [3], 16.5 µM; in [4], 12.1 µM; in experiment [5] it was 0.379 µM; in experiment [6] it was 0.21 µM. Further, the TGI in [7] was determined as 1.66 µM; in [8], 0.722 µM; in experiment [9] it was 0.465 µM; in [10] it was 0.467 µM; in experiment [11] it was 49.3 µM; in [12] it was 1.93 µM.

As to `Fc1ccc2c(c1)nc1n2C(c2c(Cl)cccc2Cl)SC1` (stereo not given), the TGI in experiment [1] stood at 30.6 µM; in [2] it was 26.2 µM; in experiment [3], 28.2 µM; in [4], 29.7 µM; in [5], 52.5 µM; in experiment [6], 29 µM. For the same compound, the TGI in [7] was 29.7 µM; in experiment [8], 29.5 µM; in [9], 30.5 µM; in [10], 34.8 µM; in [11] it was 28.3 µM; in experiment [12], 25.9 µM.

Consider `COc1cccc(CCNC(=O)Cc2ccccc2CCO)c1`, for which the TGI in experiment [1], in [2], in experiment [3], in [4], in [5] and in experiment [6] was over 100 µM throughout. For the same compound, the TGI in experiment [7], in experiment [8], in experiment [9], in [10], in experiment [11] and in experiment [12] was over 100 µM each time.

On to `COc1cc(OC)c2nc(C)c(CCCl)c(Cl)c2c1`, for which the TGI in [1], in experiment [2], in [3], in experiment [4], in [5] and in experiment [6] was over 100 µM throughout. The TGI in experiment [7], in experiment [8], in experiment [9], in [10], in experiment [11] and in experiment [12] was over 100 µM in each case.

As to `CC(=O)N(C(C)=O)c1ncc(-n2nc(-c3ccccc3)cc2-c2ccccc2)c(-c2ccccc2)n1`, the TGI in [1], in experiment [2], in experiment [3], in experiment [4], in experiment [5] and in [6] was over 10 µM in each case. For the same compound, the TGI in experiment [7], in [8], in experiment [9], in experiment [10], in experiment [11] and in [12] was over 10 µM in each case.

As to `CC(C)(C)OC(=O)N(CCCCN(CCCNC(=O)C(F)(F)F)C(=O)OC(C)(C)C)CCCNC(=O)C(F)(F)F`, the TGI in experiment [1], in experiment [2], in [3], in [4], in experiment [5] and in experiment [6] was over 100 µM each time. Further, the TGI in experiment [7], in [8], in experiment [9], in experiment [10], in [11] and in experiment [12] was over 100 µM throughout.
